The nature of data set [1]: Mode of cell death, Annexin V-FITC/PI staining (flow cytometry). The data set is classed as cell-based. The conditions noted are these: human, Viable (Q3). As to the method:
(§1) The mode of cell death can be observed through the Annexin V-FITC/PI staining (BD, USA). The result of this test is either apoptosis or necrosis. […] VCR was used as a positive control, while cells without any treatment were used as a negative control. Then, the plate was incubated for 24 hours. After the incubation, the cell suspension in each well was collected into different Eppendorf tubes. The tubes were then centrifuged for 5 minutes at 1500 rpm at 4°C. After the centrifuge, the supernatant in the tubes was removed, and the cell pellets were washed twice with cold PBS. Then, centrifuge the tubes again and remove the supernatant. Next, 100 µL of Annexin V binding buffer was resuspended in each tube, and 5 µL Annexin V-FITC was pipetted into the tube to stain the cells for 15 minutes at room temperature, dark. After that, 5 µL of propidium iodide was piped into the tube for 5 minutes. The staining process is done in dark conditions. Lastly, the sample was transferred into the Falcon tube, and each tube was resuspended in 400 µL of Annexin V binding buffer. The sample was analyzed using a flow cytometer (BD FACS Canto II) within one hour.
(In general: In flow cytometry, cells or beads pass a laser one at a time.)

The test system of data set [2] is CCL-119 cells. The data set is described as above. The data set is classed as cell-based. Here is the method:
as §1

Another data set concerns WIL2-NS cells. Details: method as in Rasli et al. (2023). Particulars: non-cancerous cells; 24 hours of exposure; graph referred to earlier paper; ref Rasli et al. (2023); cited from earlier work.
A short description of another data set: in vitro. Particulars: human. As to the method: (§2) The T-acute lymphoblastic leukemia cell line, CCRF-CEM (CCL-119™), and a non-cancerous cell, WIL2-NS (CRL-8155™), were purchased from the American Type Culture Collection (ATCC). Both are suspension types of cells and were cultured in Roswell Park Memorial Institute Medium 1640 (RPMI-1640) (Sigma-Aldrich), supplemented with 10% Fetal Bovine Serum (FBS) (Capricorn Scientific) and 1% penicillin-streptomycin (Nacalai Tesque) to obtain the complete growth medium and were incubated at 37 °C with a 5% CO2 incubator. Both suspension cells are used for tests when the cells’ passage becomes passage 3–10 (maximum).
(§3) All stock solutions of the organotin (IV) dithiocarbamate compounds were prepared at 10 mM and dissolved in dimethyl sulphoxide (DMSO) (ChemAR®). The stock solutions were stored at 4°C; fresh dilutions were made by adding the RPMI-1640 medium before the experiment. The dilution is carried out using the serial dilution method to obtain the desired concentrations, which are 5 µM, 2.5 µM, 1.25 µM, 0.63 µM, 0.32 µM, and 0.16 µM in this study. Vincristine (VCR) is used as a positive control in this study.
(§4) Both CCL-119 and WIL2-NS cells were seeded in a 96-well plate at a final concentration of 5 x 10^5 cells/well and treated with 5 µM, 2.5 µM, 1.25 µM, 0.63 µM, 0.32 µM, and 0.16 µM of organotin (IV) dithiocarbamate compound for 24 hours at 37°C with 5% CO2. VCR was used as a positive control in this study, while cells without treatment were used as a negative control. After 24 hours of exposure, 20 µL of MTT (Merck) salt solution was added into each well and incubated for another 4 hours. The plate was wrapped with aluminium foil as MTT salt is light sensitive. After 4 hours, the purple crystal formazan was formed. All the medium was removed carefully from each well, and 200 µL DMSO was added to each well to dissolve the purple formazan crystal. Then, the plates were incubated for an additional 15 minutes. The results were analyzed and recorded using an ELISA microplate reader at 570 nm. The data was then plotted into a graph, and IC50 values were determined.
(§5) The selectivity index (SI) is determined by dividing the cytotoxic activity (IC50 value) of each compound on a non-cancerous cell line (WIL2-NS) by the leukemia cell line (CCL-119). […] WIL2- NS cell lines were selected as the comparator because it is a non-cancerous human B lymphoblast cell line, which is like CCL-119 (T-lymphoblastic leukemia), derived from lymphocytes. This choice ensures that comparisons are made between biologically similar cell types, minimizing variability that could arise from differences in tissue origin or lineage.

Data set [3] has as its system CCL-119 cells. Put plainly: MTT cytotoxicity assay. The conditions noted are these: for Selectivity Index (SI): IC50 WIL2-NS / IC50 CCL-119, 24 hours. Here is the method: as §2, §3, §4, §5
(Tetrazolium assays rely on reduction of a dye to a coloured formazan, in cell work by metabolically active cells.)

The test system of data set [4] is CCL-119 cells. Put plainly: Alkaline comet assay. The data set is classed as cell-based. The conditions noted are these: 1 hour of exposure. Here is the method:
VCR was used as a positive control, and untreated cells were used as a negative control in this assay. The cells were incubated for 1 hour. After incubation, cells in each well were transferred to the Eppendorf tube to centrifuge for 5 minutes at 4°C by using a refrigerated microcentrifuge. The supernatant was removed, and the samples were washed with 1 mL of cold PBS. This process was repeated 3 times. After completion of the process, the supernatant was removed, and the pellet was left for a while on top of the ice while preparing the slide.
About 140 µL of normal melting agar (NMA) is pipetted on top of the fully frosted slide, and a cover slip is put on the agar for 5 minutes or until the agar fully solidifies. After that, the cover slip was removed, and 80 µL of low melting agar (LMA) was added to an Eppendorf tube containing the pellet of cells. The suspension was then transferred into a frosted slide with NMA agar. The cover slip was then put back on top of the frosted slide for 10 minutes or until dry. Next, the slide was transferred into a Coplin jar that contained lysis buffer solution and Triton X-100. The slides were then incubated at 4°C overnight. The slides were arranged on an electrophoresis tank filled with electrophoresis buffer for 20 minutes. Electrophoresis is done for another 20 minutes at 25 V with 300 mA. The slides were washed with a neutralization buffer solution 3 times at a 5-minute time interval. Finally, 30 µL of ethidium bromide (50 µg/mL) was added, and the slide was observed by using fluorescence microscopy (OLYMPUS BX51TR). CometScore software is used to analyze the DNA damage of the cells. The comet assay was performed under alkaline conditions (pH > 13) to detect both single- and double-strand DNA breaks.

The subject of data set [5] is CCL-119 cells. Put plainly: Cell cycle analysis (PI/RNase staining). The data set is classed as cell-based. Particulars: 24 hours at IC50; single replicates n1-n3. Here is the method:
The cells were cultured and seeded in a 6-well plate at 1 x 10^6 cells/mL. VCR was used as a positive control, and untreated cells were used as a negative control in this assay. The concentration of the compounds and VCR was followed by IC50 values that were taken from the MTT assay.
After 24 hours of incubation, all cells in the plate were transferred to the Eppendorf tube and centrifuged for 5 minutes at 4°C at 1500 rpm. After centrifuging, the supernatant was removed, and cells were washed with 500 µL cold PBS three times. The pellet was fixed by using 70% ethanol overnight at −20°C. Next, the samples were stained with 500 µL of PI/RNase staining buffer and incubated for 15 minutes. The samples were then transferred into Falcon tubes. The data was recorded using a flow cytometer and analyzed using ModFit LT software.

A further data set has as its system Jurkat E6.1 cells. Also noted: method as in Awang et al. (2015) [26]. Particulars: ref Awang et al. (2015) [26]; cited from earlier work.
[6] abbreviates: 24 hours at IC50, single replicates n1-n3.

“And” between values parts separate entries of the source, which are not always exact repeats. Equal values may be shown once.

Usually viability stands for a read-out of living cells in per cent, often relative to untreated cells. A lower viability goes with a greater loss of cells. The IC50 is the concentration that inhibits the measured activity by half. As to `CC[C@]1(O)C[C@H]2CN(CCc3c([nH]c4ccccc34)[C@@](C(=O)OC)(c3cc4c(cc3OC)N(C=O)[C@H]3[C@@](O)(C(=O)OC)[C@H](OC(C)=O)[C@]5(CC)C=CCN6CC[C@]43[C@@H]65)C2)C1` [VCR, Vincristine, reference compound], in data set [1], the viability at 24 h turned out to be 44.4%. Also, in the data set on CCL-119 cells [2] (setting [6]), the “Early Apoptosis (Q4)” value was 39.2% and 38.7% and 37.4%; the “Late Apoptosis (Q2)” value is 19% and 17.2% and 17.9%; the “Necrosis (Q1)” value is 0.45% and 0.54% and 0.51%. The “cell death through apoptosis (population of cells)” value in the data set with CCL-119 cells [2] (24 hours, treated at IC50, early + late apoptosis) worked out at 56.46%. Besides, in the data set with WIL2-NS cells, the half-inhibitory concentration (IC50) is 2.89 ± 0.03 µM. The viability at 24 h, 0.63 µM in “in vitro” (cell viability at 0.63 µM) is 50.6%. Also, the viability at 24 h, 1.25 µM in the data set “in vitro” (cell viability at 1.25 µM) amounted to 46.3%. This molecule showed a viability at 24 h, 5 µM in the data set “in vitro” (cell viability at 5.00 µM) of 41.6%. Besides, the IC50 with CCL-119 cells [3] (24 h, read-out: IC50 (µM) CCL-119) stood at 1.82 ± 1.53 µM. The “Selectivity Index (SI)” value with CCL-119 cells [3] is “below 2”. Besides, in the data set on CCL-119 cells [3] (listed as Vincristine (VCR)), the “Selectivity Index (SI)” value came out at 1.59. Moreover, in the data set on CCL-119 cells [4] (mean ± SEM), the Tail moment amounted to 4.17 ± 0.74 A.U and the “percentage of DNA intensity in the tail” value is on record as 8.48 ± 1.09%. Moreover, in the data set on CCL-119 cells [4] (single replicates n1-n3), the “% DNA intensity” value was 6.493% and 8.677% and 10.2647%; the Tail moment is 2.837 A.U and 4.286 A.U and 5.38 A.U. Further, in the data set with CCL-119 cells [5], the “cells in G0/G1 phase” value is 36.70% and 30.32% and 29.02%; the “cells in G2/M phase” value was 5.35% and 8.00% and 3.69%; the “cells in S phase” value is 57.95% and 61.68% and 67.28%.

`CCCCN(C(=S)[S][Sn]([c]1ccccc1)([c]1ccccc1)[c]1ccccc1)c1ccccc1` [triphenyltin (IV) butylphenyl dithiocarbamate]: the “mode of cell death in Jurkat E6.1 cells” value with Jurkat E6.1 cells is “predominant induction of early-phase apoptotic cell death”.

These data come from PMC12338828, “Evaluation of organotin (IV) dithiocarbamate compounds as potential anti-leukemia agents towards CCRF-CEM (CCL-119) cell line: Cytotoxic, apoptotic, cell cycle and genotoxic study” (PLOS One, 2025).
